According to ChEMBL document CHEMBL6177952, “Exploring chloro-isoxazole compounds inspired on tetrahydrofuran neolignans as promising antileishmanial agents” (Eur J Med Chem, 2025):

How the values were obtained:
Leishmania amazonensis [1] = assay: Antileishmanial activity against leishmania amazonensis IFLA/BR/1967/PH8 intracellular amastigote infected in mouse Peritoneal macrophage incubated for 24 hrs; assay type: functional, organism-based; settings: IFLA/BR/1967/PH8, Peritoneal macrophage
[2] = Cytotoxicity against BALB/c mouse Peritoneal macrophage assessed as inhibition of cell growth incubated for 48 hrs by MTT assay; assay type: toxicity, cell-based; settings: peritoneal macrophages
[3] = Selectivity ratio of CC50 for cytotoxicity against BALB/c mouse Peritoneal macrophage assessed as inhibition of cell growth to IC50 for antileishmanial activity against leishmania amazonensis IFLA/BR/1967/PH8 intracellular amastigote infected in mouse Peritoneal macrophage; assay type: toxicity, cell-based; settings: peritoneal macrophages, read-out: Ratio CC50/IC50
[4] = Selectivity ratio of CC50 for cytotoxicity against BALB/c mouse Peritoneal macrophage assessed as inhibition of cell growth to IC50 for antileishmanial activity against leishmania amazonensis IFLA/BR/1967/PH8 promastigotes infected in mouse Peritoneal macrophage; assay type: toxicity, cell-based; settings: peritoneal macrophages, read-out: Ratio CC50/IC50
Leishmania amazonensis [5] = assay: Antileishmanial activity against leishmania amazonensis IFLA/BR/1967/PH8 promastigotes infected in mouse Peritoneal macrophage incubated for 24 hrs; assay type: functional, organism-based; settings: IFLA/BR/1967/PH8, Peritoneal macrophage
Leishmania amazonensis [6] = assay: Antiparasitic activity against Leishmania amazonensis promastigotes incubated for 24 hrs; assay type: functional, organism-based
Leishmania amazonensis [7] = assay: Antileishmanial activity against leishmania amazonensis IFLA/BR/1967/PH8 amastigote measured for 72 hrs; assay type: functional, organism-based; settings: IFLA/BR/1967/PH8, 72 h
Leishmania amazonensis [8] = assay: Potency index, ratio of pentamidine IC50 to test compound IC50 for antileishmanial activity against leishmania amazonensis IFLA/BR/1967/PH8 intracellular amastigote infected in mouse Peritoneal macrophage incubated for 24 hrs; assay type: functional
Leishmania amazonensis [9] = assay: Antileishmanial activity against Leishmania amazonensis promastigotes assessed as early apoptotic parasites at 10.4 uM incubated for 24 hrs by Annexin V/7-AAD staining based flow cytometry analysis relative to control; assay type: functional
Leishmania amazonensis [10] = assay: Antileishmanial activity against Leishmania amazonensis promastigotes assessed as late apoptotic parasites at 10.4 uM incubated for 24 hrs by Annexin V/7-AAD staining based flow cytometry analysis relative to control; assay type: functional
Leishmania amazonensis [11] = assay: Antileishmanial activity against Leishmania amazonensis promastigotes assessed as viable apoptotic parasites at 10.4 uM incubated for 72 hrs by Annexin V/7-AAD staining based flow cytometry analysis relative to control; assay type: functional
Leishmania amazonensis [12] = assay: Antileishmanial activity against Leishmania amazonensis promastigotes assessed as necrotic parasites at 10.4 uM incubated for 24 hrs by Annexin V/7-AAD staining based flow cytometry analysis relative to control; assay type: functional
Leishmania amazonensis [13] = assay: Antileishmanial activity against Leishmania amazonensis promastigotes assessed as viable apoptotic parasites at 10.4 uM incubated for 24 hrs by Annexin V/7-AAD staining based flow cytometry analysis relative to control; assay type: functional
Leishmania amazonensis [14] = assay: Antileishmanial activity against Leishmania amazonensis promastigotes assessed as early apoptotic parasites at 10.4 uM incubated for 48 hrs by Annexin V/7-AAD staining based flow cytometry analysis relative to control; assay type: functional
Leishmania amazonensis [15] = assay: Antileishmanial activity against Leishmania amazonensis promastigotes assessed as viable apoptotic parasites at 10.4 uM incubated for 48 hrs by Annexin V/7-AAD staining based flow cytometry analysis relative to control; assay type: functional
Leishmania amazonensis [16] = assay: Antileishmanial activity against Leishmania amazonensis promastigotes assessed as late apoptotic parasites at 10.4 uM incubated for 48 hrs by Annexin V/7-AAD staining based flow cytometry analysis relative to control; assay type: functional
Leishmania amazonensis [17] = assay: Antileishmanial activity against Leishmania amazonensis promastigotes assessed as necrotic parasites at 10.4 uM incubated for 48 hrs by Annexin V/7-AAD staining based flow cytometry analysis relative to control; assay type: functional
Leishmania amazonensis [18] = assay: Antileishmanial activity against Leishmania amazonensis promastigotes assessed as necrotic parasites at 10.4 uM incubated for 72 hrs by Annexin V/7-AAD staining based flow cytometry analysis relative to control; assay type: functional
Leishmania amazonensis [19] = assay: Antileishmanial activity against Leishmania amazonensis promastigotes assessed as late apoptotic parasites at 10.4 uM incubated for 72 hrs by Annexin V/7-AAD staining based flow cytometry analysis relative to control; assay type: functional
Leishmania amazonensis [20] = assay: Antileishmanial activity against Leishmania amazonensis promastigotes assessed as early apoptotic parasites at 10.4 uM incubated for 72 hrs by Annexin V/7-AAD staining based flow cytometry analysis relative to control; assay type: functional
Leishmania amazonensis [21] = assay: Antileishmanial activity against Leishmania amazonensis promastigotes; assay type: functional, organism-based
[22] = Mutagenicity in Salmonella typhimurium TA100 assessed as number of revertant colonies per plate at 2.5 microg/ml in presence of S9 fraction by Ames test; assay type: toxicity, subcellular; settings: salmonella enterica subsp. enterica serovar typhimurium, dose 2.5 µg/ml
[23] = Mutagenicity in Salmonella typhimurium TA98 assessed as number of revertant colonies per plate at 2.5 microg/ml in presence of S9 fraction by Ames test; assay type: toxicity, subcellular; settings: salmonella enterica subsp. enterica serovar typhimurium, dose 2.5 µg/ml
Leishmania amazonensis [24] = assay: Antileishmanial activity against leishmania amazonensis IFLA/BR/1967/PH8 promastigotes assessed as reduction in parasite growth measured for 72 hrs; assay type: functional, organism-based; settings: IFLA/BR/1967/PH8, 72 h
Leishmania amazonensis [25] = assay: Antileishmanial activity against leishmania amazonensis IFLA/BR/1967/PH8 intracellular amastigotes infected in mouse Peritoneal macrophage assessed as reduction in parasite growth measured for 24 hrs; assay type: functional, organism-based; settings: IFLA/BR/1967/PH8, Peritoneal macrophage
Leishmania amazonensis [26] = assay: Antileishmanial activity against leishmania amazonensis infected in BALB/c mouse assessed as reduction parasite load in footpad; assay type: functional; design: scale not given: the % may be the effect or the level left
Leishmania amazonensis [27] = assay: Antileishmanial activity against leishmania amazonensis assessed as reduction in parasite growth; assay type: functional, organism-based
[28] = Mutagenicity in Salmonella typhimurium TA98 assessed as number of revertant colonies per plate at 10 microg/ml by Ames test; assay type: toxicity; settings: salmonella enterica subsp. enterica serovar typhimurium; dose 10 µg/ml

Row | IC50 (Leishmania amazonensis [1]) [µM] | IC50 (Leishmania amazonensis [5]) [µM] | SMILES | CC50 at 48 h [2] [µM] | selectivity ratio [3] | selectivity ratio [4] | also measured
1 | 10.9 | 9 | COc1ccc(-c2cc(-c3cc(OC)c(OC)c(OC)c3Cl)no2)cc1 | 9.6 | 0.8 | 1 | 
2 |  |  | COc1cc(-c2cc(-c3cc(OC)c(OC)c(OC)c3)on2)cc(OC)c1OC |  |  |  | IC50 (Leishmania amazonensis [6]): 17.6 µM
3 | 19.3 | 71.5 | COc1cc(OC)cc(-c2cc(-c3cc(OC)c(OC)c(OC)c3Cl)no2)c1 | 28 | 1.5 | 0.4 | 
4 |  |  | COc1cc(-c2cc(-c3ccc4c(c3)OCO4)no2)cc(OC)c1OC |  |  |  | IC50 (Leishmania amazonensis [7]): 3.3 µM
5 | 16.3 | 1.3 | N=C(N)c1ccc(OCCCCCOc2ccc(C(=N)N)cc2)cc1 [PENTAMIDINE] | 23.2 | 1.4 | 17.8 | 
6 | 31.7 | 88 | COc1ccc(-c2cc(-c3cc(OC)c(OC)c(OC)c3Cl)no2)cc1OC | 26.7 | 0.8 | 0.3 | 
7 |  |  | COc1cccc2c1C(=O)c1c(O)c3c(c(O)c1C2=O)C[C@@](O)(C(=O)CO)C[C@@H]3O[C@H]1C[C@H](N)[C@H](O)[C@H](C)O1 [DOXORUBICIN] | 2.4 |  |  | 
8 | 10.3 | 103 | COc1cc(-c2cc(-c3ccc4c(c3)OCO4)no2)c(Cl)c(OC)c1OC | 33.7 | 3.3 | 0.3 | Ratio IC50 (Leishmania amazonensis [8]): <=7
9 | 2 | 10.4 | C[C@@H]1[C@H](O)[C@@H](C)/C=C/C=C/C=C/C=C/C=C/C=C/C=C/[C@H](O[C@@H]2O[C@H](C)[C@@H](O)[C@H](N)[C@@H]2O)C[C@@H]2O[C@](O)(C[C@@H](O)C[C@@H](O)[C@H](O)CC[C@@H](O)C[C@@H](O)CC(=O)O[C@H]1C)C[C@H](O)[C@H]2C(=O)O [AMPHOTERICIN B] | 12.8 |  |  | Activity (Leishmania amazonensis [9]): 0.6%; Activity (Leishmania amazonensis [10]): 0.3%; Activity (Leishmania amazonensis [11]): 95.1%; Activity (Leishmania amazonensis [12]): 0.3%; Activity (Leishmania amazonensis [13]): 98.7%; Activity (Leishmania amazonensis [14]): 1.6%; Activity (Leishmania amazonensis [15]): 97.1%; Activity (Leishmania amazonensis [16]): 0.6%; Activity (Leishmania amazonensis [17]): 0.6%; Activity (Leishmania amazonensis [18]): 2.5%; Activity (Leishmania amazonensis [19]): 1.5%; Activity (Leishmania amazonensis [20]): 0.8%
10 |  |  | COc1ccc(-c2cn(-c3cc(OC)c(OC)c(OC)c3)nn2)cc1OC |  |  |  | IC50 (Leishmania amazonensis [21]): 194 µM
11 |  |  | COc1cc(-c2cn(-c3cc(OC)c(OC)c(OC)c3)nn2)cc(OC)c1OC |  |  |  | IC50 (Leishmania amazonensis [6]): > 200 µM
12 | 7.3 | 31.2 | COc1cc(OC)cc(-c2cc(-c3cc(OC)c(OC)c(OC)c3Cl)on2)c1 | 82.6 | 11.3 | 2.6 | 
13 | 12.7 | 33.8 | COc1cc(-c2cc(-c3cc(OC)c(OC)c(OC)c3Cl)on2)cc(OC)c1OC | 2.7 | 0.2 | 0.07 | 
14 | 12.5 | 45.8 | COc1ccc(-c2cc(-c3cc(OC)c(OC)c(OC)c3Cl)on2)cc1 | 60.7 | 4.9 | 1.3 | 
15 |  |  | COc1ccc(-c2cc(-c3cc(OC)c(OC)c(OC)c3)no2)cc1OC |  |  |  | IC50 (Leishmania amazonensis [21]): 19.4 µM
16 |  |  | Nc1ccc2cc3ccccc3cc2c1 [2-AMINOANTHRACENE] |  |  |  | revertant count [22]: 963 revertants/plate; Activity [23]: 231 revertants/plate
17 | 23.4 | 12 | COc1cc(-n2cc(-c3ccc4c(c3)OCO4)nn2)cc(OC)c1OC | 23.5 | 1 | 1.9 | IC50 (Leishmania amazonensis [24]): 7.2 µM
18 | 11.4 | 91.8 | COc1ccc(-c2cc(-c3cc(OC)c(OC)c(OC)c3Cl)on2)cc1OC | 47.2 | 4.1 | 0.5 | 
19 |  |  | COc1ccc(-n2cc(-c3cc(OC)c(OC)c(OC)c3)nn2)cc1OC |  |  |  | IC50 (Leishmania amazonensis [21]): 122 µM; IC50 (Leishmania amazonensis [25]): 122 µM
20 | 1.6 |  | COc1ccc(-c2cc(-c3cc(OC)c(OC)c(OC)c3)on2)cc1OC |  | 21 |  | Activity (Leishmania amazonensis [26]): 98.5%; IC50 (Leishmania amazonensis [27]): 20.2 µM
21 | 21.8 | 74.4 | COc1cc(-c2cc(-c3cc(OC)c(OC)c(OC)c3Cl)no2)cc(OC)c1OC | 7 | 0.3 | 0.1 | 
22 |  |  | Nc1ccc([N+](=O)[O-])cc1N |  |  |  | Activity [28]: 253 µg
